We go through 18 compounds from paper PMC6009876, “Introduction of pyrrolidineoxy or piperidineamino group at the 4-position of quinazoline leading to novel quinazoline-based phosphoinositide 3-kinase delta (PI3Kδ) inhibitors” (Journal of Enzyme Inhibition and Medicinal Chemistry, 2018).

The target of test [1] is T1, PI3Kδ (Homo sapiens, UniProt O00329). Kind of test: PI3Kδ inhibitory activity. It counts as biochemical. To be noted: mean of at least two experiments; for inhibition at 0.1 µM: at the concentration of 100 nM.
In test [2] the test system is Ramos. Briefly: Anti-proliferative activity, MTT reduction method. It counts as cell-based. As to conditions: Homo sapiens, mean of at least two experiments. On the technique in general: Tetrazolium dyes change colour on reduction, which living cells bring about.
For test [3], the system named is Raji. Briefly: Anti-proliferative activity, MTT reduction method. It counts as cell-based. As to conditions: Homo sapiens, mean of at least two experiments.
Test [4] has as its system RPMI-8226. Briefly: Anti-proliferative activity, MTT reduction method. It counts as cell-based. As to conditions: Homo sapiens, mean of at least two experiments.
The subject of test [5] is SU-DHL-6. Briefly: Anti-proliferative activity, CCK-8 method. To be noted: Homo sapiens, mean of at least two experiments. It counts as cell-based.
Test [6] addresses T1, PI3Kδ. As to conditions: cited from earlier work.
The target of test [7] is PI3Kα (Homo sapiens, UniProt P42336). Briefly: PI3K isoform selectivity, p110α. As to conditions: for IC50: mean of at least two experiments. It counts as biochemical.
In test [8] the target is PI3Kβ (Homo sapiens, UniProt P42338). Briefly: PI3K isoform selectivity, p110β. It counts as biochemical. As to conditions: for IC50: mean of at least two experiments.
Test [9] has as its target PI3Kγ (Homo sapiens, UniProt P48736). Briefly: PI3K isoform selectivity, p110γ. It counts as biochemical. As to conditions: for IC50: mean of at least two experiments.
[10] abbreviates: Table 3 isoform selectivity, read-out: p110δ IC50.

SMILES strings stand for the structures. Read-outs that look alike come from different tables or passages of the source.

Chain of PI3Kβ (P42338 whole entry, species assumed, canonical isoform): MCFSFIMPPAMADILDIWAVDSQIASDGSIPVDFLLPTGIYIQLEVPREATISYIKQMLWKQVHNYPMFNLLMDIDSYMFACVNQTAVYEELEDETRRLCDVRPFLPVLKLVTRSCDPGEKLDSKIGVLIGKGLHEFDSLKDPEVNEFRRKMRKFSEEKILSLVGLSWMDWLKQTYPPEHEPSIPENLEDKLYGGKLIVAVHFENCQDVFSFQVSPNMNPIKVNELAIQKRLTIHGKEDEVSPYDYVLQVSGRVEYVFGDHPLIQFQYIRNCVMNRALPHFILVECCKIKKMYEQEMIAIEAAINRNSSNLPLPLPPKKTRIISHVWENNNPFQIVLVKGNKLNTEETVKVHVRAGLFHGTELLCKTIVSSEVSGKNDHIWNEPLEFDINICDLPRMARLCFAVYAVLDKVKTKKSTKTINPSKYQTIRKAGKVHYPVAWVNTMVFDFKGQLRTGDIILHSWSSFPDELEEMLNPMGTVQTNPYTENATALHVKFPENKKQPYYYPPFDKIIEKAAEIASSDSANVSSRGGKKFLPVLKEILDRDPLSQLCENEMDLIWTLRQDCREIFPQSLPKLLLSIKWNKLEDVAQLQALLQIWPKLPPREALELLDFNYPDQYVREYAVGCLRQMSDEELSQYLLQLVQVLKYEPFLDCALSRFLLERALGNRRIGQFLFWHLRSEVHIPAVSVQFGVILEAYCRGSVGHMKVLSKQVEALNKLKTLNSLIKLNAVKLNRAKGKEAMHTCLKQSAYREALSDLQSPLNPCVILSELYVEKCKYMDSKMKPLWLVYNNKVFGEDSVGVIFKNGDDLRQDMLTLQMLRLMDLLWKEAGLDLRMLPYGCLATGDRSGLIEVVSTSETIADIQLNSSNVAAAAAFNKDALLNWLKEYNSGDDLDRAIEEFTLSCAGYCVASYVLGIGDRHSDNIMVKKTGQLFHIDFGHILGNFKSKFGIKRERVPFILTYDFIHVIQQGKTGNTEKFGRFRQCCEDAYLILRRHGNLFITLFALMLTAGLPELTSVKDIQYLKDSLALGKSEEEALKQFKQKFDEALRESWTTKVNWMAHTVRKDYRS
Chain of PI3Kβ (P27986 whole entry partner, species assumed, canonical isoform): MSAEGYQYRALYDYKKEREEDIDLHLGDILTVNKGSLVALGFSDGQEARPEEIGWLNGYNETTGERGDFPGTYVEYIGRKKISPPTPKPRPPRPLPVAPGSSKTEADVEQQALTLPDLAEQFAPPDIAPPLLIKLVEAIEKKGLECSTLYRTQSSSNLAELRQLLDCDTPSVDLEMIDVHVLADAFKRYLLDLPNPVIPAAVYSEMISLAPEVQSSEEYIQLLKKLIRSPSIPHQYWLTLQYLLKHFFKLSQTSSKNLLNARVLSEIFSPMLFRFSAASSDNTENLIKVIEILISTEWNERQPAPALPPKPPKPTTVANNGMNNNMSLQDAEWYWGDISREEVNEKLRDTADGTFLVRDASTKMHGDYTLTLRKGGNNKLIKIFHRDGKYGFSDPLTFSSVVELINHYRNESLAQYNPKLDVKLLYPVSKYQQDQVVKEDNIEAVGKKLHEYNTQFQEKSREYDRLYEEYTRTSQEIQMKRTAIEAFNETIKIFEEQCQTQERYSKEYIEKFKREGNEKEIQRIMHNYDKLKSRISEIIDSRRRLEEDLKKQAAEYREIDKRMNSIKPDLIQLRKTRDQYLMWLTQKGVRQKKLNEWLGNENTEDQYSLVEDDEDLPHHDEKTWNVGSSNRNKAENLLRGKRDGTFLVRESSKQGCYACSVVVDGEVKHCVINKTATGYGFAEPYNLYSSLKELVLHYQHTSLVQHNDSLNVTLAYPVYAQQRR
T1 sequence (O00329 whole entry): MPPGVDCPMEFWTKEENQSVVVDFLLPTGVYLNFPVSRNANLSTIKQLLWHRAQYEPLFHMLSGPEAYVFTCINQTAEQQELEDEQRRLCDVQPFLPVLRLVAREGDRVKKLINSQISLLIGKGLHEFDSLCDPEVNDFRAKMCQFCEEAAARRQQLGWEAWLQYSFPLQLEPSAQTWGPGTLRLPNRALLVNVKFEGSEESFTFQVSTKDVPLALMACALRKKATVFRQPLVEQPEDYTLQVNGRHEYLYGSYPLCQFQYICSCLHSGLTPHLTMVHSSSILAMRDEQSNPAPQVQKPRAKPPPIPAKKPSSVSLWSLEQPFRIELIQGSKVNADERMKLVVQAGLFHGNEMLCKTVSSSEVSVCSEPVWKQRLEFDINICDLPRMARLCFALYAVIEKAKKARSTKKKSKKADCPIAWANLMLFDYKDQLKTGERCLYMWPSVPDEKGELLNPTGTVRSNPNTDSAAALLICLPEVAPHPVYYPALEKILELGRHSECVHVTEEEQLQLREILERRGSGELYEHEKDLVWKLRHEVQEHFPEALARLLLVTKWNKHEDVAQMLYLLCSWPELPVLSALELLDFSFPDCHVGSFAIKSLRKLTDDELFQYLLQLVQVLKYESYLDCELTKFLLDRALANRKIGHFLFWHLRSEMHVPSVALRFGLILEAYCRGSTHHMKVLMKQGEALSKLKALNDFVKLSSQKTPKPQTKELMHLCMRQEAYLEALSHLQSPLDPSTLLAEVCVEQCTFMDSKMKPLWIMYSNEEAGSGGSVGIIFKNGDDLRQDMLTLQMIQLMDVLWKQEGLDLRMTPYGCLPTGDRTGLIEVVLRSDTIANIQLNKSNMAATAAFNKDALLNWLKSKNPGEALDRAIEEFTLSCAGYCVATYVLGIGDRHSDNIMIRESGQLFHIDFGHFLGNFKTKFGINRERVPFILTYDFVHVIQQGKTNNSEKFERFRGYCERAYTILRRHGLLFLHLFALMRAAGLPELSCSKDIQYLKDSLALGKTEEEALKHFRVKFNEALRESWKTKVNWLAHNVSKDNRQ
T1 sequence (P27986 whole entry partner): as the sequence (P27986 whole entry partner, species assumed, canonical isoform) above
Chain of PI3Kα (P42336 whole entry, species assumed, canonical isoform): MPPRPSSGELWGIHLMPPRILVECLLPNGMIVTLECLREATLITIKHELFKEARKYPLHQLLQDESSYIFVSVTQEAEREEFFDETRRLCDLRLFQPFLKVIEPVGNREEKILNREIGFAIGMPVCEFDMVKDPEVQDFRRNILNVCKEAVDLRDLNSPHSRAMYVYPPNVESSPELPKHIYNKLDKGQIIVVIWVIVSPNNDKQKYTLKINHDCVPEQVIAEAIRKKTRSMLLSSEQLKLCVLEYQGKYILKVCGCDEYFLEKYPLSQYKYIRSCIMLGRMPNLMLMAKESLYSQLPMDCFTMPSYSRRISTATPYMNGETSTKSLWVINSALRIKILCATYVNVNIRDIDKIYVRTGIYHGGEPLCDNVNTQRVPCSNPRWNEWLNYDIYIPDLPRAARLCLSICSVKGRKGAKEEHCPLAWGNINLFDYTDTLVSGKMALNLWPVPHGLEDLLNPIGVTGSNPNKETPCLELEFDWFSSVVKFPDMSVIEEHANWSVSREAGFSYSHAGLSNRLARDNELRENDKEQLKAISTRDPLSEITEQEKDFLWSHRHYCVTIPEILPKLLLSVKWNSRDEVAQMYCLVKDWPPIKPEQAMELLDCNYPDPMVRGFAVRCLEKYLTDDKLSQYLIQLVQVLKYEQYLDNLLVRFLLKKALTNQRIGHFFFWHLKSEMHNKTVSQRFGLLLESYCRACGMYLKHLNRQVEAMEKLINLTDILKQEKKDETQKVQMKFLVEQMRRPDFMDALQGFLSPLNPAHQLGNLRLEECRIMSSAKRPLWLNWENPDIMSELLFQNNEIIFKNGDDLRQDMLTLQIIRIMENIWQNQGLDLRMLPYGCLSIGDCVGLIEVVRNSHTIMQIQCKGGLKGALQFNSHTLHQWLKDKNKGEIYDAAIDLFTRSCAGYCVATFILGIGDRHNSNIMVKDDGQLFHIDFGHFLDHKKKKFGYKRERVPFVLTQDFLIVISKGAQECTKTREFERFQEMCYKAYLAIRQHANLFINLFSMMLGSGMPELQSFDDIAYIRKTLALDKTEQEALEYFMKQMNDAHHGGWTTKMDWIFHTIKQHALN
Chain of PI3Kα (P27986 whole entry partner, species assumed, canonical isoform): as the sequence (P27986 whole entry partner, species assumed, canonical isoform) above
Chain of PI3Kγ (P48736 whole entry, species assumed, canonical isoform): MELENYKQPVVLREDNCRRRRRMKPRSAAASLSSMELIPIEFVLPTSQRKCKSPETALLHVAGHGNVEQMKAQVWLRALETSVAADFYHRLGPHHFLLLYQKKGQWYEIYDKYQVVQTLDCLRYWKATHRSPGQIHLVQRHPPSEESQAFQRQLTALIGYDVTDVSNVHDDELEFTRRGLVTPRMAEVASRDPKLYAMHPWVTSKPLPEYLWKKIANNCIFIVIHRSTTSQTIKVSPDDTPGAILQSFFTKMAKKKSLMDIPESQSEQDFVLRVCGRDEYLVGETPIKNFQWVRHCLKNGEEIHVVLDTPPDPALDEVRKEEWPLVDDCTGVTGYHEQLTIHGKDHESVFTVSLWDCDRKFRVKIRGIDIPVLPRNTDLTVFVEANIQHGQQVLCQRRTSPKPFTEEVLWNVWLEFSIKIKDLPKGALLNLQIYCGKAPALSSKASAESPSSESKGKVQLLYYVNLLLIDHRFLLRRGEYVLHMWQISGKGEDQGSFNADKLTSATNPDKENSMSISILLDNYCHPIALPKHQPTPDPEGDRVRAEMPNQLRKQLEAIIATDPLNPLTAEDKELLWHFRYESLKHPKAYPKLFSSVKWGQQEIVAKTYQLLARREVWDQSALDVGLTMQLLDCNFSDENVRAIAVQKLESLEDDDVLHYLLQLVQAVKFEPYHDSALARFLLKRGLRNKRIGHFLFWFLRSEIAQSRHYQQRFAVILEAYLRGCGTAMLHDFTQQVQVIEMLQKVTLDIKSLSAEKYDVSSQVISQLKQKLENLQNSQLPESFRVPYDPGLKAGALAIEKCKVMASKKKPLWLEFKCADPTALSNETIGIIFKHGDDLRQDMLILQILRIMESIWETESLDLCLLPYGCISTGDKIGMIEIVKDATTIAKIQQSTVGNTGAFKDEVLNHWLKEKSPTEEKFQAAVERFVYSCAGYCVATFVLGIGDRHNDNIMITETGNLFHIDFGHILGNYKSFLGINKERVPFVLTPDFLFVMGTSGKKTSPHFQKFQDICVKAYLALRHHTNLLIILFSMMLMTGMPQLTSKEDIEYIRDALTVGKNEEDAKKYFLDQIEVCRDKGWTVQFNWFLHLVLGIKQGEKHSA

As to `CC[C@H](Nc1ncnc2[nH]cnc12)c1nc2cccc(F)c2c(=O)n1-c1ccccc1` [Compound 1, idelalisib, reference compound], 0.1 µM produced 96% inhibition in test [1]. For the same compound, the IC50 in [2] was over 10000 nM; in [3], 9950 nM; in [4] it was 5490 nM; in [5] it was 650 nM.

In the case of `C[C@H](Nc1nc(N)nc(N)c1C#N)c1nc2cccc(F)c2c(=O)n1-c1cc(F)cc(F)c1` [Compound 3], the IC50 in test [6] (idelalisib-derived analogues) is 2.2 nM.

Regarding `COc1ncc(-c2ccc3ncnc(Nc4cccc(C(=O)N5CCOCC5)c4)c3c2)cc1C#N` [Compound 8], the IC50 in [6] (4-anilinequinazoline) is 9.3 nM.

Regarding `COc1ccc(-c2ccc3ncnc(O[C@H]4CCN(C(=O)OC(C)(C)C)C4)c3c2)cn1` [Compound 12a], the inhibition at 0.1 µM in test [1] was determined as 79%.

Compound `COc1ccc(-c2ccc3ncnc(O[C@H]4CCN(C(=O)C5CC5)C4)c3c2)cn1` [Compound 12b] gave an inhibition at 0.1 µM in [1] of 90%. Also, the IC50 in test [1] (read-out: PI3Kδ IC50) was 9.3 nM.

In the case of `COc1ccc(-c2ccc3ncnc(O[C@H]4CCN(C(=O)C5CCC5)C4)c3c2)cn1` [Compound 12c], the inhibition at 0.1 µM in test [1] was 96%. Moreover, the IC50 in test [1] (read-out: PI3Kδ IC50) was found to be 6.1 nM.

With `COc1ccc(-c2ccc3ncnc(O[C@H]4CCN(C(=O)C5CCOCC5)C4)c3c2)cn1` [Compound 12d], the IC50 was determined as 4.9 nM in [1] (setting [10]); 4.9 nM in test [1] (read-out: PI3Kδ IC50); 50.4 nM in test [7]; 592 nM in test [8]; 468 nM in [9]; 1340 nM in test [2]. The IC50 in test [3] is 9810 nM; in test [4], 440 nM; in test [5] it was 3230 nM. Also, at 0.1 µM the inhibition in test [1] was 98%. The “PI3Kδ selectivity over PI3Kα” value in test [7] came out at 11 fold. Besides, the “PI3Kδ selectivity over PI3Kβ” value in test [8] turned out to be 131 fold. Moreover, the “PI3Kδ selectivity over PI3Kγ” value in test [9] is given as 103 fold.

Turning to `COc1ccc(-c2ccc3ncnc(O[C@H]4CCN(C(=O)C(C)(C)C)C4)c3c2)cn1` [Compound 12e], in test [1], at 0.1 µM the inhibition was 53%.

As for `COc1ccc(-c2ccc3ncnc(N[C@H]4CCCN(C(=O)OC(C)(C)C)C4)c3c2)cn1` [Compound 14a], 0.1 µM produced 51% inhibition in [1].

For the compound `COc1ccc(-c2ccc3ncnc(N[C@H]4CCCN(C(=O)C5CC5)C4)c3c2)cn1` [Compound 14b], the IC50 in [1] (setting [10]) stood at 3 nM; in test [1] (read-out: PI3Kδ IC50), 3 nM; in test [7] it was 36.6 nM; in test [8], 317 nM; in test [9] it was 104 nM; in test [2], 1340 nM. For the same compound, the IC50 in test [3] worked out at 810 nM; in test [4], 8660 nM; in test [5] it was 1040 nM. In addition, the inhibition at 0.1 µM in [1] is 94%. In [7], the “PI3Kδ selectivity over PI3Kα” value amounted to 12 fold. For the same compound, the “PI3Kδ selectivity over PI3Kβ” value in [8] was found to be 105 fold. In addition, the “PI3Kδ selectivity over PI3Kγ” value in [9] is 34 fold.

Regarding `COc1ccc(-c2ccc3ncnc(N[C@H]4CCCN(C(=O)C5CCC5)C4)c3c2)cn1` [Compound 14c], the IC50 turned out to be 3.9 nM in [1] (setting [10]); 3.9 nM in [1] (read-out: PI3Kδ IC50); 58.9 nM in test [7]; 376 nM in test [8]; 121 nM in test [9]; 1490 nM in test [5]. Moreover, at 0.1 µM the inhibition in test [1] was 91%. For the same compound, in [7], the “PI3Kδ selectivity over PI3Kα” value stood at 15 fold. Moreover, the “PI3Kδ selectivity over PI3Kβ” value in [8] was 96 fold. Also, the “PI3Kδ selectivity over PI3Kγ” value in test [9] was 31 fold.

As to `COc1ccc(-c2ccc3ncnc(N[C@H]4CCCN(C(=O)C5CCCC5)C4)c3c2)cn1` [Compound 14d], the inhibition at 0.1 µM in test [1] is 91%. In addition, the IC50 in test [1] (read-out: PI3Kδ IC50) amounted to 8.7 nM.

With `COc1ccc(-c2ccc3ncnc(N[C@H]4CCCN(C(=O)C5CCOCC5)C4)c3c2)cn1` [Compound 14e], 0.1 µM produced 88% inhibition in test [1]. In test [1] (read-out: PI3Kδ IC50), the IC50 is 5.2 nM.

As to `COc1ccc(-c2ccc3ncnc(N[C@H]4CCCN(C(=O)C(C)(C)C)C4)c3c2)cn1` [Compound 14f], in test [1], the inhibition at 0.1 µM was 54%.

In [1], `COc1ccc(-c2ccc3ncnc(NC4CCN(C(=O)OC(C)(C)C)CC4)c3c2)cn1` [Compound 16a] yielded an inhibition at 0.1 µM of 72%.

In test [1], `COc1ccc(-c2ccc3ncnc(NC4CCN(C(=O)C5CC5)CC4)c3c2)cn1` [Compound 16b] registered an inhibition at 0.1 µM of 70%.

`COc1ccc(-c2ccc3ncnc(NC4CCN(C(=O)C5CCOCC5)CC4)c3c2)cn1` [Compound 16c] gave an inhibition at 0.1 µM in test [1] of 48%.

Consider `O=C(CCCCCCC(=O)Nc1ccccc1)NO` [SAHA, vorinostat, reference compound], for which half-maximal inhibition in test [4] (IC50) required 660 nM.

Usually inhibition stands for the change of the read-out against control, counted positive when it falls. Higher therefore signals strong suppression. Usually IC50 stands for the concentration at which inhibition is half-maximal.
